Results reported in publication PMC9019904, “AD Informer Set: Chemical tools to facilitate Alzheimer's disease drug discovery” (Alzheimer's & Dementia : Translational Research & Clinical …, 2022).
Values after ≈ are worked out from the molar mass of the structure shown.

What was measured:
[1] = Kinetic solubility in aqueous buffer pH 7.4 by total chemiluminescent nitrogen determination (Analiza); settings: aqueous buffer, pH 7.4, aqueous buffer, kinetic from dmso stock
[2] = tested on: BV2 (mouse microglia) cell line; assay: pHrodo-myelin phagocytosis/cell viability high content imaging assay: phagocytosis signal; assay type: cell-based
Outline: (§1)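 HCI read-out ~22 h post pHrodo-myelin; phagocytosis + viability simultaneously; 3 parameters extracted; intensity up = early apoptosis, down = later apoptosis.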

[3] = tested on: BV2 (mouse microglia) cell line; assay: pHrodo-myelin phagocytosis/cell viability high content imaging assay: viability (cell count, nuclear area, nuclear intensity); settings: 48 hours treatment
Outline: (§2)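 Viability was read as total cell count per well by high-content imaging, with mean average nuclear intensity per cell profiling apoptosis (rise early, fall late). Compounds were given at 10 μM for 48 h, pHrodo-myelin being added for the final 20 h. Values are means of two points as % untreated control.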

[4] = tested on: HMC3 (human microglia) cell line; assay: as above; settings: 48 hours treatment
Outline: as §2

[5] = tested on: HMC3 (human microglia) cell line; assay: pHrodo-myelin phagocytosis/cell viability high content imaging assay: phagocytosis signal; assay type: cell-based
Outline: as §1

[6] = BV2, compound 10 uM, pHrodo-myelin
[7] = HMC3, compound 10 uM, pHrodo-myelin
[8] = BV2 cells, 10 uM compound, 48 hours treatment, pHrodo-myelin final 20 hours
[9] = HMC3 cells, 10 uM compound, 48 hours treatment, pHrodo-myelin final 20 hours

SMILES | solubility kinetic [1] | 1. Cell count (% control) ([3]; BV2, compound 10 uM) | 2. Nuclear Area (% Control) ([3]; BV2, compound 10 uM) | 3. Nuclear DNA Intensity (% control) ([3]; BV2, compound 10 uM) | 1. Cell count (% control) ([4]; HMC3, compound 10 uM) | 2. Nuclear Area (% Control) ([4]; HMC3, compound 10 uM) | 3. Nuclear DNA Intensity (% control) ([4]; HMC3, compound 10 uM) | 4. Phagocytosis (% control) [2, 6] | 4. Phagocytosis (% control) [5, 7] | further results
CN(C)CC[C@H](CSc1ccccc1)Nc1ccc(S(=O)(=O)NC(=O)c2ccc(N3CCN(Cc4ccccc4-c4ccc(Cl)cc4)CC3)cc2)cc1[N+](=O)[O-] [ABT-737] | 0.9 µM (≈ 0.732 µg/mL) |  |  |  |  |  |  |  |  | 
O=C(NC1CC1)C(=O)C(Cc1ccccc1)NC(=O)[C@H]1CCC(=O)N1Cc1ccccc1 (stereo partly drawn) [ABT-957 (Alicapistat)] | 176 µM (≈ 76.5 µg/mL) |  |  |  |  |  |  |  |  | 
Cc1cc(NC(=O)Nc2ccccc2)n(-c2ccccc2)n1 [CHEMBL86962 (VU0032230)] | 191 µM (≈ 55.9 µg/mL) |  |  |  |  |  |  |  |  | 
CC1(C)CCC(CN2CCN(c3ccc(C(=O)NS(=O)(=O)c4ccc(NCC5CCOCC5)c([N+](=O)[O-])c4)c(Oc4cnc5[nH]ccc5c4)c3)CC2)=C(c2ccc(Cl)cc2)C1 [Venetoclax (ABT-199)] | 6.3 µM (≈ 5.47 µg/mL) |  |  |  |  |  |  |  |  | Stimulation of mouse microglial phagocytosis at 10 μM (>150% control) ([2]; BV2, 10 μM): Y (The compound was found to stimulate phagocytosis (response threshold: >150% control) when murine immortalized microglial cells were dosed at 10 μM (Y: yes))
COc1cc(C(=O)NS(=O)(=O)c2ccccc2C)ccc1Cc1cn(C)c2ccc(NC(=O)OC3CCCC3)cc12 [Zafirlukast] | 129 µM (≈ 74.4 µg/mL) |  |  |  |  |  |  |  |  | 
CCOC(=O)N1CCC(Nc2c(NCCN3CCN(c4cccc(C(F)(F)F)c4)CC3)c(=O)c2=O)CC1 [Squarunkin A] | 0.7 µM (≈ 0.366 µg/mL) |  |  |  |  |  |  |  |  | 
N[C@@H](CC(=O)Nc1ccc(Oc2cc(F)c(F)cc2Br)cc1)C(=O)O [UNC10303167A] |  | 64.5 % control | 104.8 % Control | 103.7 % control | 105.9 % control | 102.5 % Control | 96.0 % control | 179.3 % control | 85.8 % control | 
CCCCCCOc1cc2c(cc1N(C)c1ncc(C(=O)O)cn1)C(C)(C)CCC2(C)C [UNC10302707A] |  | 135.9 % control | 104.8 % Control | 101.8 % control | 137.9 % control | 106.3 % Control | 90.2 % control | 161.8 % control | 53.6 % control | 
Cc1ccc(-n2nc(C(C)(C)C)cc2NC(=O)Nc2ccc(OCCN3CCOCC3)c3ccccc23)cc1 [UNC10225354A] |  |  |  |  |  |  |  |  |  | 1. Cell count (% control) ([3]; BV2 cells, 10 uM compound): 127.7 % control; 2. Nuclear Area (% Control) ([3]; BV2 cells, 10 uM compound): 105.8 % Control; 3. Nuclear DNA Intensity (% control) ([3]; BV2 cells, 10 uM compound): 105.3 % control; 1. Cell count (% control) ([4]; HMC3 cells, 10 uM compound): 144.2 % control; 2. Nuclear Area (% Control) ([4]; HMC3 cells, 10 uM compound): 99.1 % Control; 3. Nuclear DNA Intensity (% control) ([4]; HMC3 cells, 10 uM compound): 93.2 % control; 4. Phagocytosis (% control) [2, 8]: 236.7 % control; 4. Phagocytosis (% control) [5, 9]: 109.7 % control
C[C@H](CCCC(C)(C)O)[C@H]1CC[C@H]2[C@@H]3CC=C4C[C@@H](O)CC[C@]4(C)[C@H]3CC[C@]12C [UNC10302834A] |  | 75.6 % control | 103.0 % Control | 136.7 % control | 99.4 % control | 81.6 % Control | 144.3 % control | 50.2 % control | 45.5 % control | 
C[C@H]1Oc2cc(cnc2N)-c2c(nn(C)c2C#N)CN(C)C(=O)c2ccc(F)cc21 [UNC10244898A] |  |  |  |  |  |  |  |  |  | 1. Cell count (% control) ([3]; BV2 cells, 10 uM compound): 117.2 % control; 2. Nuclear Area (% Control) ([3]; BV2 cells, 10 uM compound): 102.7 % Control; 3. Nuclear DNA Intensity (% control) ([3]; BV2 cells, 10 uM compound): 110.1 % control; 1. Cell count (% control) ([4]; HMC3 cells, 10 uM compound): 127.2 % control; 2. Nuclear Area (% Control) ([4]; HMC3 cells, 10 uM compound): 110.3 % Control; 3. Nuclear DNA Intensity (% control) ([4]; HMC3 cells, 10 uM compound): 89.2 % control; 4. Phagocytosis (% control) [2, 8]: 200.3 % control; 4. Phagocytosis (% control) [5, 9]: 37.8 % control
CCOC(=O)c1sc(NC(=O)c2ccco2)c(SC#N)c1C [UNC10302907A] |  |  |  |  |  |  |  |  |  | 1. Cell count (% control) ([3]; BV2 cells, 10 uM compound): 60.9 % control; 2. Nuclear Area (% Control) ([3]; BV2 cells, 10 uM compound): 107.8 % Control; 3. Nuclear DNA Intensity (% control) ([3]; BV2 cells, 10 uM compound): 107.1 % control; 1. Cell count (% control) ([4]; HMC3 cells, 10 uM compound): 96.1 % control; 2. Nuclear Area (% Control) ([4]; HMC3 cells, 10 uM compound): 63.3 % Control; 3. Nuclear DNA Intensity (% control) ([4]; HMC3 cells, 10 uM compound): 173.6 % control; 4. Phagocytosis (% control) [2, 8]: 201.8 % control; 4. Phagocytosis (% control) [5, 9]: 29.4 % control
C=C1C(=O)[C@]23[C@H](O)[C@H]1CC[C@H]2[C@@]12CO[C@]3(O)[C@@H](O)[C@@H]1C(C)(C)CC[C@@H]2O [UNC10302873A] |  | 12.1 % control | 120.3 % Control | 80.8 % control | 42.7 % control | 59.1 % Control | 208.5 % control | 153.4 % control | 0.0307 % control | 
CCOC(=O)CS(=O)(=O)c1ccc([C@@H](CO)NC(=O)c2cc3c(Cl)c(Cl)c(C)cc3n2C)cc1 [UNC10302908A] |  |  |  |  |  |  |  |  |  | 1. Cell count (% control) ([3]; BV2 cells, 10 uM compound): 28.9 % control; 2. Nuclear Area (% Control) ([3]; BV2 cells, 10 uM compound): 117.3 % Control; 3. Nuclear DNA Intensity (% control) ([3]; BV2 cells, 10 uM compound): 97.5 % control; 1. Cell count (% control) ([4]; HMC3 cells, 10 uM compound): 71.6 % control; 2. Nuclear Area (% Control) ([4]; HMC3 cells, 10 uM compound): 75.5 % Control; 3. Nuclear DNA Intensity (% control) ([4]; HMC3 cells, 10 uM compound): 156.6 % control; 4. Phagocytosis (% control) [2, 8]: 249.0 % control; 4. Phagocytosis (% control) [5, 9]: 53.1 % control
C[C@H](NC(=O)c1sccc1OCc1ccc(Cl)cc1)c1ccccc1 [UNC10302704A] |  | 95.5 % control | 101.0 % Control | 97.2 % control | 112.7 % control | 95.6 % Control | 89.7 % control | 123.4 % control | 66.4 % control | 
O=c1ccc2c(OCCCCc3ccccc3)c3ccoc3cc2o1 [UNC10100197A] |  | 106.2 % control | 106.9 % Control | 106.7 % control | 124.6 % control | 99.9 % Control | 93.8 % control | 195.3 % control | 60.7 % control | 
